Bounds are passed on as bounds.

Experiment in all cases: stopped-flow CO2 hydrase assay
What all share (type): biochemical

Assay [1] deals with T1, hCA IX (Homo sapiens, UniProt Q16790).
T1 construct: gene CA9; recombinant, obtained in-house as reported earlier
The source says:
stopped-flow CO2 hydrase assay on hCA IX

The target of assay [2] is T2, hCA IV (Homo sapiens, UniProt P22748).
T2 construct: gene CA4; recombinant, obtained in-house as reported earlier
An excerpt:
stopped-flow CO2 hydrase assay on hCA IV

Assay [3] has as its target T3, hCA II (Homo sapiens, UniProt P00918).
T3 construct: gene CA2; recombinant, obtained in-house as reported earlier; cytosolic
An excerpt:
stopped-flow CO2 hydrase assay on hCA II

Assay [4] has as its target T4, hCA I (Homo sapiens, UniProt P00915).
T4 construct: gene CA1; recombinant, obtained in-house as reported earlier; cytosolic
An excerpt: stopped-flow CO2 hydrase assay on hCA I

T2 sequence (P22748 19-284): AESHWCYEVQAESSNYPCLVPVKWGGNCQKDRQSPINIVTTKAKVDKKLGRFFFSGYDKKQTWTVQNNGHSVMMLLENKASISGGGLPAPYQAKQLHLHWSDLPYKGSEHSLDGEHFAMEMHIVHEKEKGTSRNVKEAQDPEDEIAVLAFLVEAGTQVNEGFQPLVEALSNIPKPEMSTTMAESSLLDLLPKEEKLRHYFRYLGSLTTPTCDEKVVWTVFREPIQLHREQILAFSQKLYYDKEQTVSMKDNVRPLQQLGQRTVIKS
T4 sequence (P00915 2-261): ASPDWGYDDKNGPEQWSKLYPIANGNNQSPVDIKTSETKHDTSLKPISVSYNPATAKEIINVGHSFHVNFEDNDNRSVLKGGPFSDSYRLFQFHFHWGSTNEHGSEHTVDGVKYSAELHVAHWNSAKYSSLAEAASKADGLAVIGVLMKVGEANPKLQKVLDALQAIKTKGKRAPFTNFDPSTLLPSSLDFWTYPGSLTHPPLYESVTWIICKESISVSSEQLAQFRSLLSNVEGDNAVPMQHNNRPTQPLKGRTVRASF

In general, Ki refers to a measure of affinity in units of concentration, obtained from inhibition or displacement. The low end stands for a stronger hold on the target, the high end for a looser hold on the target. Take `[N-]=[N+]=Nc1ccc(S(N)(=O)=O)cc1` [compound 2, 4-azido benzenesulfonamide]: the Ki in assay [1] is 235 nM; in assay [2], > 10000 nM.

As to `N#Cc1nnn(-c2ccc(S(N)(=O)=O)cc2)c1N` [compound 3, 4-(5-amino-4-cyano-1H-1,2,3-triazol-1-yl)benzenesulfonamide], the Ki amounted to 118 nM in assay [1], 16.7 nM in assay [3], 1940 nM in assay [4] and 2270 nM in assay [2].

`Nc1c(C2=NCCN2)nnn1-c1ccc(S(N)(=O)=O)cc1` [compound 4, 4-(5-amino-4-(4,5-dihydro-1H-imidazol-2-yl)-1H-1,2,3-triazol-1-yl)benzenesulfonamide]: the Ki in assay [1] is 3710 nM; in assay [3] it was 6840 nM; in assay [4], 9940 nM; in assay [2], 3190 nM.

On to `N#Cc1nnn(-c2ccc(S(N)(=O)=O)cc2)c1NC(=O)CCl` [compound 5, 2-chloro-N-(4-cyano-1-(4-sulfamoylphenyl)-1H-1,2,3-triazol-5-yl)acetamide], for which the Ki in assay [1] came out at 454 nM; in assay [3], 518 nM; in assay [4] it was 2550 nM; in assay [2], 1200 nM.

Take `CC(=O)CC(=O)Nc1c(C#N)nnn1-c1ccc(S(N)(=O)=O)cc1` [compound 6, N-(4-cyano-1-(4-sulfamoylphenyl)-1H-1,2,3-triazol-5-yl)-3-oxobutanamide]: the Ki was found to be 410 nM in assay [1], 684 nM in assay [3], 2860 nM in assay [4] and 472 nM in assay [2].

As to `N#Cc1nnn(-c2ccc(S(N)(=O)=O)cc2)c1NCC(=O)c1ccccc1` [compound 7, 4-(4-cyano-5-((2-oxo-2-phenylethyl)amino)-1H-1,2,3-triazol-1-yl)benzenesulfonamide], the Ki came out at 283 nM in assay [1], 562 nM in assay [3], 1790 nM in assay [4] and 745 nM in assay [2].

In the case of `N#Cc1nnn(-c2ccc(S(N)(=O)=O)cc2)c1/N=C/c1ccccc1Cl` [compound 8, (E)-4-(5-((2-chlorobenzylidene)amino)-4-cyano-1H-1,2,3-triazol-1-yl)-benzenesulfonamide], the Ki in assay [1] is 1770 nM; in assay [3], 6130 nM; in assay [4], 5140 nM; in assay [2], > 10000 nM.

As to `N#Cc1nnn(-c2ccc(S(N)(=O)=O)cc2)c1/N=C/c1ccc(Cl)cc1` [compound 9, (E)-4-(5-((4-chlorobenzylidene)amino)-4-cyano-1H-1,2,3-triazol-1-yl) benzenesulfonamide], the Ki in assay [1] was determined as 307 nM; in assay [3], 94.5 nM; in assay [4], 1600 nM; in assay [2], 4670 nM.

Take `CN(C)c1ccc(/C=N/c2c(C#N)nnn2-c2ccc(S(N)(=O)=O)cc2)cc1` [compound 10, (E)-4-(4-cyano-5-((4-(dimethylamino)benzylidene)amino)-1H-1,2,3-triazol-1-yl)benzenesulfonamide]: the Ki was 451 nM in assay [1], 179 nM in assay [3], 2920 nM in assay [4] and 3410 nM in assay [2].

Take `Cc1ccc(S(=O)(=O)Nc2c(C#N)nnn2-c2ccc(S(N)(=O)=O)cc2)cc1` [compound 12, N-(4-cyano-1-(4-sulfamoylphenyl)-1H-1,2,3-triazol-5-yl)-4-methylbenzenesulfonamide]: the Ki in assay [1] is 105 nM; in assay [3], 90.1 nM; in assay [4] it was 8100 nM; in assay [2], 2610 nM.

Take `N#Cc1c(N)c2nnn(-c3ccc(S(N)(=O)=O)cc3)c2[nH]c1=O` [compound 13, 4-(7-amino-6-cyano-5-oxo-4,5-dihydro-3H-[1,2,3]triazolo[4,5-b]pyridin-3-yl) benzenesulfonamide]: the Ki in assay [1] came out at 287 nM; in assay [3], 957 nM; in assay [4], 790 nM; in assay [2], 167 nM.

`N#Cc1c(-c2ccccc2)nc2c(nnn2-c2ccc(S(N)(=O)=O)cc2)c1N` [compound 14, 4-(7-amino-6-cyano-5-phenyl-3H-[1,2,3]triazolo[4,5-b]pyridin-3-yl)benzenesulfonamide]: the Ki in assay [1] was determined as 46.4 nM; in assay [3], 57 nM; in assay [4], 1250 nM; in assay [2] it was 676 nM.

On to `N#Cc1c(-c2ccccc2Cl)nc2c(nnn2-c2ccc(S(N)(=O)=O)cc2)c1N` [compound 15, 4-(7-amino-5-(2-chlorophenyl)-6-cyano-3H-[1,2,3]triazolo[4,5-b]pyridin-3-yl)benzenesulfonamide], for which the Ki in assay [1] stood at 407 nM; in assay [3] it was 230 nM; in assay [4], 2690 nM; in assay [2], 2580 nM.

Consider `N=c1c2nnn(-c3ccc(S(N)(=O)=O)cc3)c2[nH]c(=O)n1-c1ccccc1` [compound 19, 4-(7-imino-5-oxo-6-phenyl-4,5,6,7-tetrahydro-3H-[1,2,3]triazolo[4,5-d]pyrimidin-3-yl)benzenesulfonamide], for which the Ki in assay [1] came to 158 nM; in assay [3], 589 nM; in assay [4], 2800 nM; in assay [2], 2270 nM.

As to `N=c1c2nnn(-c3ccc(S(N)(=O)=O)cc3)c2[nH]c(=S)n1-c1ccc(S(=O)(=O)Nc2cnc3ccccc3n2)cc1` [compound 21], the Ki was 3810 nM in assay [1], 2370 nM in assay [3], 5840 nM in assay [4] and 5030 nM in assay [2].

For the origin of these results see article PMC6171417, “Carbonic anhydrase inhibition with a series of novel benzenesulfonamide-triazole conjugates” (Journal of Enzyme Inhibition and Medicinal Chemistry, 2018).
